Assay results reported in ChEMBL document CHEMBL3124925, “Further constituents of Galianthe thalictroides (Rubiaceae) and inhibition of DNA topoisomerases I and IIα by its cytotoxic β-carboline alkaloids” (Bioorg Med Chem Lett, 2014).
≈ marks a conversion by molar mass, not a printed value. Calls of active or inactive are those of the source. No cut-off for these calls is given here.

How the values were obtained:
[1] = biological target: T1, DNA topoisomerase 1 (Homo sapiens) (UniProt P11387); assay: Inhibition of recombinant human DNA top1-mediated relaxation of pBR322 plasmid at 100 uM after 30 mins by agarose gel electrophoresis
T1 sequence (whole entry): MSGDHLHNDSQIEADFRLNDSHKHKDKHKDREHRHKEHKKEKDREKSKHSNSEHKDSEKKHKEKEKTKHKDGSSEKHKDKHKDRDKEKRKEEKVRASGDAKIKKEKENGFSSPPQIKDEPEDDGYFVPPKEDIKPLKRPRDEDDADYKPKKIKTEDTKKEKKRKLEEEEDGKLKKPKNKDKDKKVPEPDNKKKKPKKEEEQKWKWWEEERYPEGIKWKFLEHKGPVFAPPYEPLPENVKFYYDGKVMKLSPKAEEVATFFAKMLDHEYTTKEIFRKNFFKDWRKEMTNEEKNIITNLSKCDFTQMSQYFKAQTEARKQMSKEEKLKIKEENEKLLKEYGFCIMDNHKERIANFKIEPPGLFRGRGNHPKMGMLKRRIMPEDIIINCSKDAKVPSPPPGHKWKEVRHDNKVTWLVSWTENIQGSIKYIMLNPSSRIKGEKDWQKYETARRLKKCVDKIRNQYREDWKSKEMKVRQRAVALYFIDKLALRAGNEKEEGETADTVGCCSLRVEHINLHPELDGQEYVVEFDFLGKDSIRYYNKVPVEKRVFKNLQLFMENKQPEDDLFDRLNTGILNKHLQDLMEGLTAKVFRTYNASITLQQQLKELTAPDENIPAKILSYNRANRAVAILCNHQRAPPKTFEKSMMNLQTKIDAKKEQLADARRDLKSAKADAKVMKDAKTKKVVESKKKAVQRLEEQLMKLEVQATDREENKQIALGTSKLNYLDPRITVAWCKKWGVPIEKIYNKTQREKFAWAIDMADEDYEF

[2] = biological target: DNA topoisomerase 2-alpha (Homo sapiens) (UniProt P11388); assay: Inhibition of recombinant human top2 alpha-mediated kDNA decatenation compound added post enzyme-DNA incubation by agarose gel electrophoresis in presence of DTT
[3] = biological target: DNA topoisomerase 2-alpha (Homo sapiens) (UniProt P11388); assay: Inhibition of recombinant human top2 alpha-mediated kDNA decatenation compound added post enzyme-DNA incubation by agarose gel electrophoresis
[4] = biological target: DNA topoisomerase 2-alpha (Homo sapiens) (UniProt P11388); assay: Inhibition of recombinant human top2 alpha-mediated kDNA decatenation at 25 uM after 30 mins by agarose gel electrophoresis
[5] = biological target: T1, DNA topoisomerase 1 (Homo sapiens); assay: Inhibition of recombinant human DNA top1-mediated relaxation of pBR322 plasmid at 25 uM after 30 mins by agarose gel electrophoresis
UACC-62 = assay: Cytotoxicity against human UACC62 cells assessed as growth inhibition by SRB assay; type: functional, cell-based
MCF7 = assay: Cytotoxicity against human MCF7 cells assessed as growth inhibition by SRB assay; type: functional, cell-based
786-0 = assay: Cytotoxicity against human 786-0 cells assessed as growth inhibition by SRB assay; type: functional, cell-based
[6] = biological target: DNA topoisomerase 2-alpha (Homo sapiens) (UniProt P11388); conditions: 100 uM
Description: Inhibition of recombinant human top2 alpha-mediated kDNA decatenation at 100 uM after 30 mins by agarose gel electrophoresis

[7] = biological target: DNA topoisomerase 2-alpha (Homo sapiens) (UniProt P11388); assay: Inhibition of recombinant human top2 alpha-mediated kDNA decatenation at 1 uM after 30 mins by agarose gel electrophoresis
[8] = biological target: T1, DNA topoisomerase 1 (Homo sapiens); assay: Inhibition of recombinant human DNA top1-mediated relaxation of pBR322 plasmid at 1 uM after 30 mins by agarose gel electrophoresis
B16-F10 = assay: Cytotoxicity against mouse B16F10 cells assessed as growth inhibition by SRB assay; type: functional

Chain of DNA topoisomerase 2-alpha (Homo sapiens) (P11388 whole entry): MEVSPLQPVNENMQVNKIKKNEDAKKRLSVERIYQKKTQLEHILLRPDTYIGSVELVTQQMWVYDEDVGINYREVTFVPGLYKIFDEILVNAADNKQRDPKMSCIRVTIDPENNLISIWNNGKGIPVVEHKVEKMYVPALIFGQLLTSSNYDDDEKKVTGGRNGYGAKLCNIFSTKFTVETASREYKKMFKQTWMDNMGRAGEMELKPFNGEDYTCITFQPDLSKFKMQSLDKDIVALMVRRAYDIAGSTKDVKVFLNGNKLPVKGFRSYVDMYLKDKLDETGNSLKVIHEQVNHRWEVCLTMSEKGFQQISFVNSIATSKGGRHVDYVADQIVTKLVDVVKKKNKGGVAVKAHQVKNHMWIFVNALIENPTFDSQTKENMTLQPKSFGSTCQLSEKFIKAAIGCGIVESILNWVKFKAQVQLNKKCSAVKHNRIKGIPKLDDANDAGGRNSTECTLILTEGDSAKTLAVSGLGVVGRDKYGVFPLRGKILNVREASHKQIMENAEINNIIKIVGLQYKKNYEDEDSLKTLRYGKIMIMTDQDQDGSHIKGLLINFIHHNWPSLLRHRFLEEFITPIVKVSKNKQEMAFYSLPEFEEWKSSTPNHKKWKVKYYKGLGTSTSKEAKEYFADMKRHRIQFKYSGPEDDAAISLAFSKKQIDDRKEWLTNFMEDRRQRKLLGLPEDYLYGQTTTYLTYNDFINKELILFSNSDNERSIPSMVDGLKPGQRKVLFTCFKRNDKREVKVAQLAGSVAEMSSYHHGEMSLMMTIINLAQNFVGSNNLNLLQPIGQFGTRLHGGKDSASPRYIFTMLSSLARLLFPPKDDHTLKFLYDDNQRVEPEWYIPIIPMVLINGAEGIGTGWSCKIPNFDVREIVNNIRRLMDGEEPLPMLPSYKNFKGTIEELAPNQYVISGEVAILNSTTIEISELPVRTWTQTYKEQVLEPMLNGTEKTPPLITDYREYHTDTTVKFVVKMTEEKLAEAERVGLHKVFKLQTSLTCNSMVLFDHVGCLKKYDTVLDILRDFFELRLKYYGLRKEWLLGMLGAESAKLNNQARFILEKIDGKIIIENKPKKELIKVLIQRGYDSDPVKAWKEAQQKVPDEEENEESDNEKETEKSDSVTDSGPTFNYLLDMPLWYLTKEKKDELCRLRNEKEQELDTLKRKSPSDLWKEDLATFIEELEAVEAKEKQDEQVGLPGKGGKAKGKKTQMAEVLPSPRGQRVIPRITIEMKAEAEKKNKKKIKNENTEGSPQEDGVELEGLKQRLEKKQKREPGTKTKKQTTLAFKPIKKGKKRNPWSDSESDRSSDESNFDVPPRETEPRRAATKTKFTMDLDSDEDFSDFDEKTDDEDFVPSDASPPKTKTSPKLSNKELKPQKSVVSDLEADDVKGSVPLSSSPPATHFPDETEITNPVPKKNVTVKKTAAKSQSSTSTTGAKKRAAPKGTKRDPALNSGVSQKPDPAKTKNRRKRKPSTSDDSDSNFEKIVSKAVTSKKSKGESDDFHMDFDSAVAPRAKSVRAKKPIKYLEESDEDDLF

inhibition [2]	inhibition [3]	SMILES	GI50 (B16-F10)	GI50 (UACC-62)	GI50 (MCF7)	GI50 (786-0)	other results
–	–	CCc1c2c(nc3ccc(OC(=O)N4CCC(N5CCCCC5)CC4)cc13)-c1cc3c(c(=O)n1C2)COC(=O)[C@]3(O)CC	–	–	–	–	inhibition [1]: Active
Active	Active	COc1cccc2[nH]c3c([C@H]4[C@H](C(C)(C)O)CC[C@@]4(O)CO)nccc3c12	–	–	–	–	inhibition [4]: Active; inhibition [5]: Active; IC50 (UACC-62): 1.7 µg/mL (≈ 4.59 µM); IC50 (MCF7): 1.8 µg/mL (≈ 4.86 µM); IC50 (786-0): 0.22 µg/mL (≈ 0.594 µM)
Active	Active	COc1cc([C@@H]2c3cc4c(cc3[C@@H](O[C@@H]3O[C@@H]5CO[C@@H](C)O[C@H]5[C@H](O)[C@H]3O)[C@H]3COC(=O)[C@H]23)OCO4)cc(OC)c1O	–	–	–	–	inhibition [6]: Active
Active	Active	COc1cccc2[nH]c3c([C@H]4[C@H](C(C)(C)O)CC[C@]4(C)O)nccc3c12	19.5 µg/mL (≈ 55 µM)	2.5 µg/mL (≈ 7.05 µM)	3 µg/mL (≈ 8.46 µM)	3 µg/mL (≈ 8.46 µM)	inhibition [7]: Active; inhibition [8]: Active
–	–	COc1cccc2c1C(=O)c1c(O)c3c(c(O)c1C2=O)C[C@@](O)(C(=O)CO)C[C@@H]3O[C@H]1C[C@H](N)[C@H](O)[C@H](C)O1.Cl [DOXORUBICIN HYDROCHLORIDE]	0.22 µg/mL	0.25 µg/mL	0.23 µg/mL	0.43 µg/mL	–
